Assay [1] concerns the target T1, serotonin-2 receptor (Rattus norvegicus, UniProt P14842). Nature of the assay: in vivo displacement of 3H-spiperone binding in rat brain. Also on record: serotonin-2 receptors in rat brain; from tissue; host or cells: rat brain, in vivo. To be noted: ip. The method, then: In vivo, the compounds according to the present application displace the binding of ^3 H-spiperone to serotonin-2 receptors in rat brain. Illustrative of the invention, the compound of example 1 displaces the binding of ^3 H-spiperone with an ED50 value of about 2 mg/Kg i.p.
On the technique in general: Displacement assays read how much labelled ligand stays bound in the presence of the test substance.

The target in assay [2] is T1, serotonin-2 receptor. Nature of the assay: 5-hydroxytryptophane-induced head twitch test. In kind it is in vivo. Also on record: membrane preparations of frontal/parietal cortex from male Sprague-Dawley rats; from tissue; host or cells: frontal/parietal cortex membranes, male Sprague-Dawley rat. Particulars: po, 5-HTP induced head twitch, read-out: effective dose in the head twitch test. The method, then: The head twitch test for assessing central nervous system serotonin-2 receptor antagonism in the rat is described in Neuropharmacology 16, 663 (1977) and in J. Pharmacol. Exp. Ther. 228, 133 (1984). The test is carried out as follows:
Male Wistar rats (120-180 g) are fasted for 18 hours prior to testing but allowed water ad libitum. All animals are pretreated with the peripheral decarboxylase inhibitor alpha-methyl-DOPA hydrazine (carbidopa, 25 mg/kg i.p., 4.0 ml/kg) followed 30 minutes later by 5-hydroxy-tryptophane (5-HTP 100 mg/kg s.c., 4.0 ml/kg). Ninety minutes after receiving 5-HTP, the rats are placed individually in plexiglass observation cages and the frequency of head twitches for each animal is counted over a 10 minute observation period. The test compound or vehicle is administered at either 0.5 hour at 1.0 ml/kg i.p. or at 1, 2 or 4 hours at 10 ml/kg p.o. prior to the observation period. ED50 values are determined by probit analysis.

Assay [3] concerns the target T1, serotonin-2 receptor. The experiment in a line: biochemical. The method, then:
The serotonin-2 receptor (also named 5-hydroxytryptamine-2 or 5HT-2 receptor) binding properties are determined in vitro by measuring the ability of said compounds to inhibit the specific binding of ^3 H-ketanserin, in membrane preparations of frontal/parietal cortex from male Sprague-Dawley rats essentially as described by Battaglia et al. in Life Sciences 33, 2011 (1983). IC50 values, representing the concentration of compound required to displace 50% of ^3 H-ketanserin, are determined by log-logit analysis of the specific binding data.

For 1 compound, ED50 and IC50 results are on record in patent US4737496A, “1,3,4,16b-tetra hydro-2H,10H-indolo[2,1-c]pyrazino-[1,2-a][1,4]benzodiazepines useful as serotonin-2 receptor antagonists” (Ciba-Geigy Corporation, priority 1986, dated 1988).

T1 sequence (P14842 whole entry): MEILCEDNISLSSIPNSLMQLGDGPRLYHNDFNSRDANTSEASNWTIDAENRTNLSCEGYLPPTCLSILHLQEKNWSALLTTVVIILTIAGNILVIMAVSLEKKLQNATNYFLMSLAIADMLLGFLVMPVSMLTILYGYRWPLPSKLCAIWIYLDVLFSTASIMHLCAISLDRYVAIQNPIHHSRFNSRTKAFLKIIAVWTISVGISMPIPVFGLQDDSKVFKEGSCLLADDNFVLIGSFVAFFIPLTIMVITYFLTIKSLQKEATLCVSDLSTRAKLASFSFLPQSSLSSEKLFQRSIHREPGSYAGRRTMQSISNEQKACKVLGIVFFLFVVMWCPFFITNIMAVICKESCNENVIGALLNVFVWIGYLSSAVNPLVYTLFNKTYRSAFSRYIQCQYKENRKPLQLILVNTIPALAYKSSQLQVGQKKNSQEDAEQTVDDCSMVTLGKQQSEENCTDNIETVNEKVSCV

Usually IC50 stands for the concentration needed to halve the response being measured. A low value points to greater potency in that assay. Turning to `COC(=O)c1c2n(c3ccccc13)Cc1ccccc1N1CCN(C)CC21` (stereo not drawn) [Example 1, methyl 1,3,4,16b-tetrahydro-2-methyl-2H,10H-indolo[2,1-c]pyrazino[1,2-a][1,4]benzodiazepine-16-carboxylate], the results for the ED50 at serotonin-2 receptor [1] and on serotonin-2 receptor [2] were ~2 mg/kg and ~3 mg/kg, respectively. Further, on serotonin-2 receptor [3], the 50% inhibitory concentration (IC50) is ~4 nM.
